Measurements as given in patent publication US20220259551A1, “METHODS OF OPTIMIZED EUGLENA FERMENTATION USING ENGINEERED TANK DESIGN” (NOBLEGEN INC., priority 2019, published 2022).

Test system: Euglena gracilis Z
Assay: Effect of organic acids, with or without glucose, on Euglena growth in shake flasks (Example 9)
Format: cell-based
Conditions: for % Increase in biomass between 48 h and 120 h / Net change in biomass: higher levels of acids (~2-5 g/L) solely or with glucose (~15 g/L); for higher acid contribution to biomass when fed along with glucose vs maximum acid alone contribution: higher acid concentrations (2-5 g/L); for higher acid contribution to biomass when fed along with glucose vs maximum acid alone contribution / further improvement in net biomass concentration compared to 48 h: end of 120 h; for higher biomass compared to control (glucose alone): higher levels of acids (~2-5 g/L) + glucose ~15 g/L; for higher biomass compared to control (glucose alone) / higher biomass compared to glucose alone (control) / net biomass: end of 48 h; for higher biomass compared to glucose alone (control): lower acid supplementation (~0.0005-0.05 g/L) + glucose 15 g/L
[1] = no glucose, acid conc. 0.05 g/L, 48 h
[2] = fumaric acid 0.0005 g/L + glucose 15 g/L, 48 h
[3] = lactic acid 0.05 g/L + glucose 15 g/L, 48 h

Compound: O=C(O)/C=C/C(=O)O [Fumaric acid only]
- % Increase in biomass between 48 h and 120 h: 4.8%
- Net change in biomass (incubation 48 h): 2.10 g/L
- Net change in biomass (incubation 120 h): 2.20 g/L
- Net biomass conc. (48 h) (no glucose, acid conc. 0.0005 g/L, 48 h): 0.70 g/L

Compound: O=C[C@H](O)[C@@H](O)[C@H](O)[C@H](O)CO [Glucose (Control)]
- Net biomass conc. (48 h) (Glucose conc. 15 g/L, no acid, 48 h): 6.70 g/L
- % Increase in biomass between 48 h and 120 h: 0.0%
- Net change in biomass (incubation 48 h): 6.50 g/L
- Net change in biomass (incubation 120 h): 6.50 g/L

Compound: CC(O)C(=O)O (stereo not drawn) [Lactic acid only]
- % Increase in biomass between 48 h and 120 h: 9.5%
- Net change in biomass (incubation 48 h): 2.10 g/L
- Net change in biomass (incubation 120 h): 2.30 g/L
- Net biomass conc. (48 h) [1]: 0.60 g/L

Compound: O=C(O)CC(O)C(=O)O (stereo not drawn) [Malic acid only]
- % Increase in biomass between 48 h and 120 h: −7.1%
- Net change in biomass (incubation 48 h): 1.40 g/L
- Net change in biomass (incubation 120 h): 1.30 g/L
- Net biomass conc. (48 h) [1]: 0.60 g/L

Compound: CC(=O)C(=O)O [Pyruvate only]
- % Increase in biomass between 48 h and 120 h: −11.1%
- Net change in biomass (incubation 48 h): 0.90 g/L
- Net change in biomass (incubation 120 h): 0.80 g/L
- Net biomass conc. (48 h) [1]: 1.00 g/L

Compound: O=C(O)CCC(=O)O [Succinic acid only]
- % Increase in biomass between 48 h and 120 h: 13.6%
- Net change in biomass (incubation 48 h): 2.20 g/L
- Net change in biomass (incubation 120 h): 2.50 g/L
- Net biomass conc. (48 h) [1]: 0.70 g/L

Compound: O=C(O)/C=C/C(=O)O [fumaric acid]
- conversion efficiency (15 g/L glucose and 2 g/L fumaric acid, 120 h): 57.4%
- conversion efficiency (15 g/L glucose and 5 g/L fumaric acid, 120 h): 58.41%
- biomass yield (g)/g of carbon, higher than glucose alone [2]: 8.4%
- higher conversion efficiency compared to glucose alone (15 g/L) [2]: 21.9%
- maximum biomass obtained (fumaric acid 2 g/L and 5 g/L): ~1.5 g/L
- higher acid contribution to biomass when fed along with glucose vs maximum acid alone contribution: 46.67%
- higher biomass compared to control (glucose alone): 12.3%
- higher biomass compared to glucose alone (control): 7.5%
- net biomass (~5 g/L as sole carbon source): 2.10 g/L

Compound: CC(O)C(=O)O (stereo not drawn) [lactic acid]
- higher acid contribution to biomass when fed along with glucose vs maximum acid alone contribution: 5.56%
- higher biomass compared to control (glucose alone): 1.5%
- biomass yield (g)/g of carbon [3]: 1.35 g/g of carbon
- biomass yield (g)/g of carbon, higher than the control [3]: ~13%
- conversion efficiency [3]: 54.8%
- conversion efficiency, higher than the glucose control [3]: ~8%
- higher biomass compared to glucose alone (control): 13.4%
- net biomass (~5 g/L as sole carbon source): 2.10 g/L
- further improvement in net biomass concentration compared to 48 h (~5 g/L as sole carbon source): 9.5%

Compound: O=C(O)CC(O)C(=O)O (stereo not drawn) [malic acid]
- higher acid contribution to biomass when fed along with glucose vs maximum acid alone contribution: 63.64%
- higher biomass compared to control (glucose alone): 4.6%
- higher biomass compared to glucose alone (control): −3%
- net biomass (~5 g/L as sole carbon source): 1.40 g/L

Compound: CC(=O)C(=O)O [pyruvate, pyruvic acid]
- higher acid contribution to biomass when fed along with glucose vs maximum acid alone contribution: 72.73%
- net biomass (~2 g/L as sole carbon source): 0.90 g/L

Compound: O=C(O)CCC(=O)O [succinate, succinic acid]
- higher biomass compared to control (glucose alone): 3.1%
- net biomass (~5 g/L as sole carbon source): 2.20 g/L
- further improvement in net biomass concentration compared to 48 h (~5 g/L as sole carbon source): 13.6%
